Test results published in patent US8748452B2, “Indolizine derivative and use thereof for medical purposes” (Kissei Pharmaceutical Co., Ltd., priority 2009, dated 2014).

What follows are molecules tested against T1, Xanthine oxidase (from bovine milk, Sigma) (Bos taurus, UniProt P80457) (assay: Xanthine oxidase inhibitory activity). Conditions: xanthine oxidase from bovine milk 0.02 units/mL, xanthine 200 μM, 10 minutes at room temperature, absorbance at 290 nm.
T1 construct: Xanthine oxidase (from bovine milk, Sigma); purchased Sigma; host or cells: bovine milk
T1 sequence (P80457 whole entry): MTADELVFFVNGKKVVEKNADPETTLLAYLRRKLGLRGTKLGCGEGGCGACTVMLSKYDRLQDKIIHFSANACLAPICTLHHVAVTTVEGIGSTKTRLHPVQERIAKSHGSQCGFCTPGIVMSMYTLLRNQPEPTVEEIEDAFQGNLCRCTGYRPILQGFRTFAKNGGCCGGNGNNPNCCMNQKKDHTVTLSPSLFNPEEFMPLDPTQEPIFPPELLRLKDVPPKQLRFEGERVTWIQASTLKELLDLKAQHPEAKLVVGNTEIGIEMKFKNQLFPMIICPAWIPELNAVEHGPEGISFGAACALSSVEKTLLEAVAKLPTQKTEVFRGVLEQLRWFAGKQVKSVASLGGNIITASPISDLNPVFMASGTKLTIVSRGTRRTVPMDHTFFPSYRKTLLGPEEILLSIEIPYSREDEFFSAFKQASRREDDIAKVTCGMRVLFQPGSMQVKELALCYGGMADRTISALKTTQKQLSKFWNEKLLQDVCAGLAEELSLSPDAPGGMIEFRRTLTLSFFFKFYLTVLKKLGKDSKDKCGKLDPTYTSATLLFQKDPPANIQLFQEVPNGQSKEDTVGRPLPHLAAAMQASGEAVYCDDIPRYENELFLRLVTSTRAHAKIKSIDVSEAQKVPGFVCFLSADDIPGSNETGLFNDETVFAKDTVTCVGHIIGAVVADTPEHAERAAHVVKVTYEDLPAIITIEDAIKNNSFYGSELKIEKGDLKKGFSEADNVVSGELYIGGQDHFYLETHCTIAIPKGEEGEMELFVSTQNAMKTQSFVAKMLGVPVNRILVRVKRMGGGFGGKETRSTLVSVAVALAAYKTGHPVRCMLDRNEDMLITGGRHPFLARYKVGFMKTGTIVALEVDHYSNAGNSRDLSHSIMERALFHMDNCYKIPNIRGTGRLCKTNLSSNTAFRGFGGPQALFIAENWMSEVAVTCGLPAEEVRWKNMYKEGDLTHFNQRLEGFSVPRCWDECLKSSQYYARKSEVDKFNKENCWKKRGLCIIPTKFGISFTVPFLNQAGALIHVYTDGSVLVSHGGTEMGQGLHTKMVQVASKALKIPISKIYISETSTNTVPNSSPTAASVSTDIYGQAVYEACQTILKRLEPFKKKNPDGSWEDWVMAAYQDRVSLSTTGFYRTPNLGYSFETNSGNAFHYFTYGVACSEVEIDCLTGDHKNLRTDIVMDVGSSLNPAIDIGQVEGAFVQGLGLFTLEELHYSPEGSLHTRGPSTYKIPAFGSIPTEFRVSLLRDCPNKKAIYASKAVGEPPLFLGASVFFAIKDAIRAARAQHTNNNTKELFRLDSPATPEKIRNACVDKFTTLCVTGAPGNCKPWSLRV
Type: biochemical
Experimental: (1) Preparation of test compounds
Test compounds were dissolved in DMSO (Wako pure chemical) at 40 mM concentration and then diluted to intended concentrations with phosphate-buffered saline (PBS).
(2) Method for measurement
Xanthine oxidase (from bovine milk, Sigma) was prepared with phosphate-buffered saline (PBS) at 0.02 units/mL, and then the solution was added to 96 well plates at 50 μL/well. In addition, test compounds diluted with PBS were added at 50 μL/well. Xanthine (Wako pure chemical) at 200 μM prepared with PBS was added at 100 μL/well, and the mixture was reacted for 10 minutes at room temperature. Absorbance at 290 nm was measured using a microplate reader SpectraMax Plus 384 (Molecular device). The absorbance under a condition without xanthine is 0%, and control without test compounds is 100%. Fifty % inhibitory concentration (IC50) of test compounds was calculated (Table 17). Ex. No. in the table indicates Example number.
`N#Cc1cc(-c2ccc(C(=O)O)cc2)n2ccccc12` [Example 1, 4-(1-Cyanoindolizine-3-yl) benzoic acid] showed an IC50 of 7 nM.
In the case of `N#Cc1cc(-c2ccc(C(=O)O)cc2)n2cccc(Cl)c12` [Example 3], the IC50 is reported as 6 nM.
`Cc1cccn2c(-c3ccc(C(=O)O)cc3)cc(C#N)c12` [Example 4] was tested, and the IC50 was 7 nM.
Molecule `Cc1cc(C)c2c(C#N)cc(-c3ccc(C(=O)O)cc3)n2c1` [Example 6] has an IC50 of 9 nM.
With `N#Cc1cc(-c2ccc(C(=O)O)cc2)n2ccc3c(c12)CCCC3` [Example 9] the IC50 was 3 nM.
`CCc1cccn2c(-c3ccc(C(=O)O)cc3)cc(C#N)c12` [Example 11] gave an IC50 of 4 nM.
For `CCc1ccc2c(C#N)cc(-c3ccc(C(=O)O)cc3)n2c1` [Example 12], the IC50 was 11 nM.
`N#Cc1cc(-c2ccc(C(=O)O)cc2)n2cccc(F)c12` [Example 13] showed an IC50 of 9 nM.
In the case of `N#Cc1cc(-c2ccc(C(=O)O)cc2)n2cc(F)ccc12` [Example 14], the IC50 is reported as 18 nM.
`N#Cc1cc(-c2ccc(C(=O)O)cc2)n2ccc(C(F)(F)F)cc12` [Example 15] showed an IC50 of 10 nM.
`N#Cc1cc(-c2ccc(C(=O)O)c(O)c2)n2ccccc12` [Example 17, 4-(1-Cyanoindolizine-3-yl)-2-hydroxybenzoic acid] gave an IC50 of 4 nM.
`Cc1cccn2c(-c3ccc(C(=O)O)c(O)c3)cc(C#N)c12` [Example 19] showed an IC50 of 3 nM.
Work on `Cc1ccc2c(C#N)cc(-c3ccc(C(=O)O)c(O)c3)n2c1` [Example 20] yielded an IC50 of 5 nM.
Work on `Cc1cc(C)c2c(C#N)cc(-c3ccc(C(=O)O)c(O)c3)n2c1` [Example 21] yielded an IC50 of 4 nM.
In the case of `CCc1cccn2c(-c3ccc(C(=O)O)c(O)c3)cc(C#N)c12` [Example 24], the IC50 is reported as 6 nM.
With `N#Cc1cc(-c2ccc(C(=O)O)c(O)c2)n2ccc(C(F)(F)F)cc12` [Example 27] the IC50 was 5 nM.
Molecule `N#Cc1cc(-c2ccc(C(=O)O)s2)n2ccccc12` [Example 28] has an IC50 of 3 nM.
`N#Cc1cc(-c2ccc(C(=O)O)c(N)c2)n2ccccc12` [Example 30, 2-Amino-4-(1-cyanoindolizine-3-yl) benzoic acid] gave an IC50 of 8 nM.
For `N#Cc1cc(-c2ccc(C(=O)O)c(F)c2)n2ccccc12` [Example 33], the IC50 was 30 nM.
In the case of `Cc1ccn2c(-c3ccc(C(=O)O)c(F)c3)cc(C#N)c2c1F` [Example 34], the IC50 is reported as 10 nM.
`Cc1cc2c(C#N)cc(-c3ccc(C(=O)O)cc3)n2cc1Cl` [Example 36] showed an IC50 of 8 nM.
For `Cc1ccn2c(-c3ccc(C(=O)O)cc3)cc(C#N)c2c1C` [Example 38], the IC50 was 5 nM.
`Cc1c(Cl)ccn2c(-c3ccc(C(=O)O)cc3)cc(C#N)c12` [Example 39] showed an IC50 of 8 nM.
With `COc1cccn2c(-c3ccc(C(=O)O)cc3)cc(C#N)c12` [Example 41] the IC50 was 5 nM.
In the case of `CC(C)c1ccn2c(-c3ccc(C(=O)O)cc3)cc(C#N)c2c1` [Example 42], the IC50 is reported as 4 nM.
`CC(C)(C)c1ccn2c(-c3ccc(C(=O)O)cc3)cc(C#N)c2c1` [Example 43] gave an IC50 of 2 nM.
`CC(C)(O)c1ccn2c(-c3ccc(C(=O)O)cc3)cc(C#N)c2c1` [Example 44] was tested, and the IC50 was 3 nM.
`COc1ccn2c(-c3ccc(C(=O)O)cc3)cc(C#N)c2c1` [Example 45] was tested, and the IC50 was 5 nM.
`COc1cc2c(C#N)cc(-c3ccc(C(=O)O)cc3)n2cc1C` [Example 46] was tested, and the IC50 was 8 nM.
`CC(C)Oc1ccn2c(-c3ccc(C(=O)O)cc3)cc(C#N)c2c1C(F)(F)F` [Example 47, 4-(1-Cyano-7-isopropoxy-8-trifluoromethylindolizine-3-yl) benzoic acid] showed an IC50 of 2 nM.
In the case of `N#Cc1cc(-c2ccc(C(=O)O)c(O)c2)n2cc(F)c(C(F)(F)F)cc12` [Example 48], the IC50 is reported as 6 nM.
`Cc1ccn2c(-c3ccc(C(=O)O)c(O)c3)cc(C#N)c2c1C` [Example 51] showed an IC50 of 5 nM.
Work on `Cc1c(Cl)ccn2c(-c3ccc(C(=O)O)c(O)c3)cc(C#N)c12` [Example 52] yielded an IC50 of 2 nM.
Work on `CC(=O)c1ccn2c(-c3ccc(C(=O)O)c(O)c3)cc(C#N)c2c1` [Example 53] yielded an IC50 of 3 nM.
With `N#Cc1ccn2c(-c3ccc(C(=O)O)c(O)c3)cc(C#N)c2c1` [Example 54] the IC50 was 3 nM.
